Values of other authors as cited in patent publication US7586020B2, “Methods for determining effects of maternal treatments on offspring” (priority 1998, dated 2009).

System: (YS×VY)FI female mice
Conditions: between about 17 and 24 months of age

Cl[C@H]1[C@H](Cl)[C@@H](Cl)[C@@H](Cl)[C@H](Cl)[C@H]1Cl [lindane]
mortality, lindane-treated versus untreated control mice: no differences in mortality
